Test results reported in PubChem BioAssay AID651773 (Broad Institute, 2012).
“And” between values parts separate entries of the source, which are not always exact repeats. Equal entries are not always repeated. Records with an inconclusive call do not appear.

Tested on: SK-MEL-5 MITF mRNA qPCR, delta-delta-Ct, overnight
Assay: inhibitors of MITF mRNA expression, dose response, cell-based, RT-qPCR, SK-MEL-5, dry powder (AID 651773)

SMILES | AC40
CCN1CCN(C2=C(Nc3ccc(F)cc3F)C(=O)c3ccccc3C2=O)CC1 | 2280 nM
O=C1C=C(NS(=O)(=O)c2ccc(Br)cc2)C(=O)c2ccccc21 | 631 nM
CC(C)N1CCN(C2=C(Nc3ccc(F)cc3F)C(=O)c3ccccc3C2=O)CC1 | 1590 nM
O=C1C(Nc2ccc(F)cc2)=C(N2CCCCC2)C(=O)c2ccccc21 | 6700 nM
NC1=C(NC(=O)c2ccccc2)C(=O)c2ccccc2C1=O | 357 nM
NC1=C(NS(=O)(=O)c2ccccc2)C(=O)c2ccccc2C1=O | 2760 nM
O=C1C(NS(=O)(=O)c2cccs2)=C(c2ccccc2)C(=O)c2ccccc21 | 4940 nM
O=C1C=C(NS(=O)(=O)c2ccccc2)C(=O)c2ccccc21 | 196 nM
NS(=O)(=O)c1ccc(NC2=CC(=O)c3ccccc3C2=O)cc1 | 115 nM
NC1=C(NS(=O)(=O)c2cccs2)C(=O)c2ccccc2C1=O | 1550 nM
COC1=C(NS(=O)(=O)c2ccccc2)C(=O)c2ccccc2C1=O | 1840 nM
CCN1CCN(C2=C(NC(=O)c3ccccc3)C(=O)c3ccccc3C2=O)CC1 | 1280 nM
CC(C)N1CCN(C2=C(Nc3ccc(F)cc3)C(=O)c3ccccc3C2=O)CC1 | 5510 nM
NC1=C(NS(=O)(=O)c2ccc(Br)cc2)C(=O)c2ccccc2C1=O | 4920 nM
COC1=C(NS(=O)(=O)c2ccc(Br)cc2)C(=O)c2ccccc2C1=O | 6510 nM
O=C1C(Nc2ccc(Cl)cc2)=C(N2CCCC2)C(=O)c2ccccc21 | 9480 nM

SMILES | AC40
O=C1C=C(Nc2ccccc2)C(=O)c2ccccc21 | 175 nM and 189 nM
Cc1ccc(NC2=CC(=O)c3ccccc3C2=O)cc1 | 1650 nM
O=C1C(Nc2cccc(Cl)c2)=C(N2CCCC2)C(=O)c2ccccc21 | 10200 nM
O=C(NC1=C(Cl)C(=O)c2ccccc2C1=O)c1ccccc1 | 179 nM
COC1=C(Nc2ccccc2)C(=O)c2ccccc2C1=O | 386 nM
O=C1C=C(Nc2ccc([N+](=O)[O-])c(C(F)(F)F)c2)C(=O)c2ccccc21 | 86.8 nM
O=C1C=C(NS(=O)(=O)c2cccs2)C(=O)c2ccccc21 | 542 nM
O=C1C(Nc2ccc(Br)cc2)=C(N2CCCCC2)C(=O)c2ccccc21 | 9490 nM
C=CCNC1=C(Cl)C(=O)c2ccccc2C1=O | 276 nM
CN1CCN(C2=C(NS(=O)(=O)c3ccc(Br)s3)C(=O)c3ccccc3C2=O)CC1 | 1330 nM
CCN1CCN(C2=C(NS(=O)(=O)c3ccc(Br)cc3)C(=O)c3ccccc3C2=O)CC1 | 3650 nM
NC1=CC(=O)c2ccccc2C1=O | 372 nM
CN1CCN(C2=C(Nc3ccc(F)cc3F)C(=O)c3ccccc3C2=O)CC1 | 1820 nM
O=C1C(Nc2ccccc2)=C(c2ccccc2)C(=O)c2ccccc21 | 5040 nM
COC1=C(NS(=O)(=O)c2cccs2)C(=O)c2ccccc2C1=O | 7800 nM
